Assay results reported in patent US20260166039A1 (SCHRÖDINGER, INC., priority 2022, published 2026).
pIC50: −log10 of the molar value. Like-named read-outs stand apart in the source and are kept apart here.

Tests used:
Wee1 kinase domain = biological target: T1, Wee1 kinase domain (Homo sapiens, UniProt P30291); assay: Wee1 Kinase Biochemical Assay (ADP-Glo); conditions: 15 uM ATP
T1 construct: Wee1 kinase domain was purchased from Carna (catalog #05-177); purchased Carna 05-177
Summary of the method: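 1 nM enzyme; 15 uM ATP; 2 ng/mL poly(Lys,Tyr 4:1); 40 mM Tris-HCl, 20 mM MgCl2, 0.1 mg/mL BSA, 2 mM DTT; 4 h, 25 °C; ADP-Glo; % inhibition vs DMSO and saturating positive-control wells.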

[1] = tested on: phosphorylation of Cdc2 Y15 (Wee1 substrate) in A427 cells; assay: Phosphorylated Cdc2 MSD Electrochemiluminescence Assay; format: cell-based
Summary of the method: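 A427 cells (RPMI 1640, 10% FBS) treated 20 h after plating with 3-fold serial compound dilutions, in duplicate, 37 °C, 5% CO2; total incubation 6 h. Lysate Cdc2 pY15 read by MSD electrochemiluminescence sandwich immunoassay; % remaining signal normalised to DMSO (high) and reference Wee1 inhibitor (low) controls.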

[2] = class symbols, 1 nM Wee1 enzyme, 4 hours at 25° C.
[3] = Homo sapiens, A-427, class symbols, read-out: A427 pCDC2 MSD IC50

T1 sequence (P30291 299-569 limits assumed): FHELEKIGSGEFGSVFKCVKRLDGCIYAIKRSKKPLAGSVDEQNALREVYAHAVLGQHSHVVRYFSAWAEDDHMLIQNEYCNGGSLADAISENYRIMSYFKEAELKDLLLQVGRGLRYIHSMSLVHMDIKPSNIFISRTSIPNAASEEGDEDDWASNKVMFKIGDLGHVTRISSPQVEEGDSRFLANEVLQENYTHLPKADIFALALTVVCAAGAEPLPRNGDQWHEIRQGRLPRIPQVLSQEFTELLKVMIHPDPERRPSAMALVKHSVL

Row | pIC50 (Wee1 kinase domain; [2]) | pIC50 [1, 3] | pIC50 (Wee1 kinase domain; Wee1 kinase domain, ADP-Glo) | pIC50 ([1]; Homo sapiens, A-427, pCDC2 MSD) | pIC50 ([1]; pCDC2 MSD) | Compound
1 | > 8.00 | 6.00 to 7.00 | – | – | – | CC1(C)C[C@H]2N(c3cccc(N=S(C)(C)=O)n3)c3nc(Nc4cnn(C(F)F)c4)ncc3[C@@]2(C)CO1 (single isomer, unassigned) [Example 487]
2 | > 8.00 | 6.00 to 7.00 | – | – | – | CN[C@H](c1cccc(N2c3nc(Nc4ccc(N5CCN(C)CC5)cc4)ncc3[C@@]3(C)COC(C)(C)C[C@@H]23)n1)C(F)(F)F [Example 755, (4bR,8aR)-4b,7,7-trimethyl-N-(4-(4-methylpiperazin-1-yl)phenyl)-9-(6-((R)-2,2,2-trifluoro-1-(methylamino)ethyl)pyridin-2-yl)-4b,5,7,8,8a,9-hexahydropyrano[3′,4′:4,5]pyrrolo[2,3-d]pyrimidin-2-amine]
3 | – | – | > 8.00 | 6.00 to 7.00 | – | C[C@H]1COC(=O)N1c1cccc(N2c3nc(Nc4ccc(N5CC6(CN(C)C6)C5)cc4)ncc3[C@@]3(C)COC(C)(C)C[C@@H]23)n1 (single isomer, unassigned) [Example 355]
4 | – | – | > 8.00 | > 7.00 | – | CNCc1cccc(N2c3nc(Nc4cnn(C(C)(C)C)c4)ncc3[C@@]3(C)COC(C)(C)C[C@@H]23)n1 (single isomer, unassigned) [Example 48]
5 | > 8.00 | 6.00 to 7.00 | – | – | – | Cc1cc(Nc2ncc3c(n2)N(c2cccc(N4CCOC4=O)n2)[C@@H]2CC(C)(C)OC[C@]32C)ccc1N1C[C@@H]2C[C@H]1CN2C [Example 654, 3-(6-((4bR,8aR)-4b,7,7-trimethyl-2-((3-methyl-4-((1S,4S)-5-methyl-2,5-diazabicyclo[2.2.1]heptan-2-yl)phenyl)amino)-4b,7,8,8a-tetrahydropyrano[3′,4′:4,5]pyrrolo[2,3-d]pyrimidin-9(5H)-yl)pyridin-2-yl)oxazolidin-2-one]
6 | > 8.00 | 6.00 to 7.00 | – | – | – | CN1CCN(c2ccc(Nc3ncc4c(n3)N(c3cccc(N5C(=O)OCC5(C)C)n3)[C@@H]3CC(C)(C)OC[C@]43C)cc2)CC1 (single isomer, unassigned) [Example 728]
7 | > 8.00 | 6.00 to 7.00 | – | – | – | CN=[S@@](C)(=O)c1cccc(N2c3nc(Nc4ccc(N5CCN(C)CC5)cc4)ncc3[C@@]3(C)COC(C)(C)C[C@@H]23)n1 (single isomer, unassigned) [Example 765]
8 | – | – | > 8.00 | 6.00 to 7.00 | – | CN1CC2(C1)CN(c1ccc(Nc3ncc4c(n3)N(c3cccc(N=S(C)(C)=O)n3)[C@@H]3CC(C)(C)OC[C@]43C)cc1)C2 [Example 219, dimethyl((6-((4bR,8aR)-4b,7,7-trimethyl-2-((4-(6-methyl-2,6-diazaspiro[3.3]heptan-2-yl)phenyl)amino)-4b,7,8,8a-tetrahydropyrano[3′,4′:4,5]pyrrolo[2,3-d]pyrimidin-9(5H)-yl)pyridin-2-yl)imino)-l6-sulfanone]
9 | – | – | > 8.00 | – | 6.00 to 7.00 | CC1(C)C[C@H]2N(c3cccc(N=S(C)(C)=O)n3)c3nc(NC(=O)[C@H]4C[C@@H]4c4ccccc4)ncc3[C@@]2(C)CO1 (single isomer, unassigned) [Example 397]
10 | > 8.00 | 6.00 to 7.00 | – | – | – | CC1(C)C[C@H]2N(c3cccc(N=S(C)(C)=O)n3)c3nc(Nc4cnn(C(F)(F)F)c4)ncc3[C@@]2(C)CO1 (single isomer, unassigned) [Example 488]
11 | > 8.00 | 6.00 to 7.00 | – | – | – | CC1(C)C[C@H]2N(c3cccc(N=S(C)(C)=O)n3)c3nc(Nc4ccc(N5CC6(CNC6)C5)cc4)ncc3[C@@]2(C)CO1 (single isomer, unassigned) [Example 494]
12 | > 8.00 | > 7.00 | – | – | – | CN1CCN(c2cccc(Nc3ncc4c(n3)N(c3cccc(N=S(C)(C)=O)n3)[C@@H]3CC(C)(C)OC[C@]43C)c2)CC1 (single isomer, unassigned) [Example 486]
13 | – | – | > 8.00 | 6.00 to 7.00 | – | Cc1cc(Nc2ncc3c(n2)N(c2cccc(C(C)(C)O)n2)[C@@H]2CC(C)(C)OC[C@]32C)ccc1N1CCN(C)CC1 (single isomer, unassigned) [Example 9]
14 | > 8.00 | 6.00 to 7.00 | – | – | – | CC1(C)C[C@H]2N(c3ccc4c(n3)[C@@](C)(N)CC4)c3nc(Nc4ccc(N5CCOCC5)cc4)ncc3[C@@]2(C)CO1 (single isomer, unassigned) [Example 565]
